For experiment [1], the system named is H929 human cancer cell lines. Put plainly: Cellular viability / proliferation (Cell TiterGlo, 72 h). The class given is cell-based. The method in brief:
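Cells were seeded at 1,000 cells/well in medium with 10% FBS and dosed 24 h later with a 2-fold serial dilution of compound (top concentration 50 μM, final DMSO <1%).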

Experiment [2] deals with Mcl-1 (Homo sapiens (Human), UniProt Q07820). Put plainly: Fluorescence polarization anisotropy (FPA) competition assay, FITC-Bak or FITC-Bim BH3 peptide. In kind it is binding. To be noted: read-out: Ki for Inhibition of Mcl-1 by FPA assay. For orientation: Fluorescence polarisation rises when a labelled molecule tumbles more slowly, as on binding a larger partner.
[3] abbreviates: Homo sapiens, NCI-H929, 72 h, read-out: GI50 on cellular proliferation of H929 human cancer cell lines, H929 cells, 72 h, Cell TiterGlo, 10% FBS.
The mark [4] stands for this setting: H929 cells, 72 h, Cell TiterGlo, 10% FBS, read-out: GI50 on cellular proliferation of H929 human cancer cell lines.

Where two headings read alike, the source gives them in different places.

Chain of Mcl-1 (Q07820 172-327): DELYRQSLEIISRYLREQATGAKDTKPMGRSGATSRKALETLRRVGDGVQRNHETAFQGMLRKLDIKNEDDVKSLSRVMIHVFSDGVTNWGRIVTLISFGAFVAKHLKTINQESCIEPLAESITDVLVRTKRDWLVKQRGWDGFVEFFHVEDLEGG

As a reminder, the Ki is a measure of affinity in units of concentration, obtained from inhibition or displacement. Turning to `Cc1nnc(Cn2c(C(=O)O)cc3cccc(N4C[C@@H](C)n5c(c(CCCOc6cc(C)c(Cl)c(C)c6)c6ccc(Cl)c(-c7c(C)nn(C)c7C)c65)C4=O)c32)o1` [Example 315, 7-[(4R)-7-chloro-10-[3-(4-chloro-3,5-dimethyl-phenoxy)propyl]-4-methyl-1-oxo-6-(1,3,5-trimethylpyrazol-4-yl)-3,4-dihydropyrazino[1,2-a]indol-2-yl]-1-[(5-methyl-1,3,4-oxadiazol-2-yl)methyl]indole-2-carboxylic acid], the GI50 in experiment [1] (setting [3]) stood at 2800 nM. In addition, the inhibition constant Ki in experiment [2] was less than 1 nM.
The corresponding values for `Cc1cc(OCCCc2c3n(c4c(-c5c(C)nn(C)c5C)c(Cl)ccc24)[C@H](C)CN(c2cccc4c(C)c(C(=O)O)n(C)c24)C3=O)cc(C)c1Cl` [Example 316, (R)-7-(7-Chloro-10-(3-(4-chloro-3,5-dimethylphenoxy)propyl)-4-methyl-1-oxo-6-(1,3,5-trimethyl-1H-pyrazol-4-yl)-3,4-dihydropyrazino[1,2-a]indol-2(1H)-yl)-1,3-dimethyl-1H-indole-2-carboxylic acid] are 470 nM and less than 1 nM.
As to `Cc1cc(N2C[C@@H](C)n3c(c(CCCOc4cc(C)c(Cl)c(C)c4)c4ccc(Cl)c(-c5c(C)nn(C)c5C)c43)C2=O)c2cc(C(=O)O)n(C)c2c1` [Example 317, (R)-4-(7-Chloro-10-(3-(4-chloro-3,5-dimethylphenoxy)propyl)-4-methyl-1-oxo-6-(1,3,5-trimethyl-1H-pyrazol-4-yl)-3,4-dihydropyrazino[1,2-a]indol-2(1H)-yl)-1,6-dimethyl-1H-indole-2-carboxylic acid], the GI50 in experiment [1] (setting [3]) was 720 nM. In addition, the Ki in experiment [2] was less than 1 nM.
Regarding `Cc1cc(OCCCc2c3n(c4c(-c5c(C)nn(CCN6CCCC6)c5C)c(Cl)ccc24)[C@H](C)CN(c2cccc4c2cc(C(=O)O)n4C)C3=O)cc(C)c1Cl` [Example 318, (R)-4-(7-Chloro-10-(3-(4-chloro-3,5-dimethylphenoxy)propyl)-6-(3,5-dimethyl-1-(2-(pyrrolidin-1-yl)ethyl)-1H-pyrazol-4-yl)-4-methyl-1-oxo-3,4-dihydropyrazino[1,2-a]indol-2(1H)-yl)-1-methyl-1H-indole-2-carboxylic acid], in experiment [1] (setting [3]), the GI50 turned out to be 820 nM. Further, the inhibition constant Ki in experiment [2] came to 1.5 nM.
Take `Cc1cc(OCCCc2c3n(c4c(-c5c(C)nn(C)c5C)c(Cl)ccc24)[C@H](C)CN(c2ccc(O)c4cc(C(=O)O)n(C)c24)C3=O)cc(C)c1Cl` [Example 321, (M, R)-7-(7-Chloro-10-(3-(4-chloro-3,5-dimethylphenoxy)propyl)-4-methyl-1-oxo-6-(1,3,5-trimethyl-1H-pyrazol-4-yl)-3,4-dihydropyrazino[1,2-a]indol-2(1H)-yl)-4-hydroxy-1-methyl-1H-indole-2-carboxylic acid]: the GI50 in experiment [1] (setting [4]) worked out at 1400 nM. Besides, in experiment [2], the Ki is less than 1 nM.
`Cc1cc(OCCCc2c3n(c4c(-c5c(C)nn(C)c5C)c(Cl)ccc24)[C@H](C)CN(c2cccc4cc(C(=O)O)n(CCN(C)C)c24)C3=O)cc(C)c1Cl` [Example 322, (R)-7-(7-Chloro-10-(3-(4-chloro-3,5-dimethylphenoxy)propyl)-4-methyl-1-oxo-6-(1,3,5-trimethyl-1H-pyrazol-4-yl)-3,4-dihydropyrazino[1,2-a]indol-2(1H)-yl)-1-(2-(dimethylamino)ethyl)-1H-indole-2-carboxylic acid]: the GI50 in experiment [1] (setting [3]) stood at 1800 nM. Further, in experiment [2], the Ki is 1.7 nM.
Consider `COCCOc1ccc(N2C[C@@H](C)n3c(c(CCCOc4cc(C)c(Cl)c(C)c4)c4ccc(Cl)c(-c5c(C)nn(C)c5C)c43)C2=O)c2cc(C(=O)O)n(C)c12` [Example 323, (M, R)-4-(7-Chloro-10-(3-(4-chloro-3,5-dimethylphenoxy)propyl)-4-methyl-1-oxo-6-(1,3,5-trimethyl-1H-pyrazol-4-yl)-3,4-dihydropyrazino[1,2-a]indol-2(1H)-yl)-7-(2-methoxyethoxy)-1-methyl-1H-indole-2-carboxylic acid], for which the GI50 in experiment [1] (setting [4]) was 1500 nM. The Ki in experiment [2] is less than 1 nM.

These data come from patent US11596639B2, “Substituted indole Mcl-1 inhibitors” (Vanderbilt University, priority 2016, dated 2023).
